PMC4071569, “Investigation of Indolglyoxamide and Indolacetamide Analogues of Polyamines as Antimalarial and Antitrypanosomal Agents” (Marine Drugs, 2014)
Read-outs that look alike come from different tables or passages of the source.

What was measured:
[1] = test system: Plasmodium falciparum, K1 strain, IEF stage; conditions: cited from earlier work; for Pf SI (selectivity index for P. falciparum = IC50 L6/IC50 Pf): K1 strain vs L6
[2] = test system: Trypanosoma brucei rhodesiense, STIB 900 strain, trypomastigotes stage; parameters: method as in PMID 21348447; conditions: data taken from ref 24, read-out: IC50 T. b. rhod.; cited from earlier work
[3] = test system: L6 rat skeletal myoblast cell line; parameters: method as in PMID 21348447; conditions: data taken from ref 24; cited from earlier work
[4] = test system: Trypanosoma brucei rhodesiense, STIB 900 strain, trypomastigotes stage; assay: In vitro anti-trypanosomal activity (growth inhibition); assay type: cell-based; conditions: STIB 900 strain, trypomastigotes, average of two independent assays, read-out: IC50 T. b. rhod.
Experimental: (§1) The in vitro activities against the protozoan parasites T.b. rhodesiense, and P. falciparum and cytotoxicity assessment against L6 cells were determined as reported elsewhere.

[5] = test system: Plasmodium falciparum, NF54 strain, IEF stage; assay: In vitro antimalarial activity, NF54 drug sensitive strain; assay type: cell-based; conditions: for IC50: NF54 strain, IEF stage, average of two independent assays, read-out: IC50 P. falc.; for Pf SI (selectivity index for P. falciparum = IC50 L6/IC50 Pf): NF54 strain vs L6
Experimental: as §1

[6] = test system: L6 rat skeletal myoblast cell line; assay: Cytotoxicity towards L6 cells; assay type: cell-based; conditions: L6 rat skeletal myoblast cell line; average of two independent assays; read-out: IC50 L6
Experimental: as §1

[7] = test system: GFP-transfected P. berghei strain ANKA; assay: In vivo anti-malarial efficacy in P. berghei infected mice; parameters: species or system Plasmodium berghei; conditions: repeated ip dose of 50 (mg/kg)/day for four days
Experimental: Analogue 20 was selected for in vivo evaluation in Plasmodium berghei infected mice. […] No increase in mean survival time was observed.
In vivo anti-malarial activity was assessed as previously described. Groups of three female NMRI mice (20–22 g) were intravenously infected with 2 × 10^7 parasitized erythrocytes on day 0 with GFP-transfected P. berghei strain ANKA [32]. Compounds were formulated in 100% DMSO, diluted 10-fold in distilled water and administered intraperitoneally in a volume of 10 mL·kg^−1 on four consecutive days (4, 24, 48 and 72 h post infection). Parasitemia was determined on day 4 post infection (24 h after last treatment) by FACS analysis. Activity was calculated as the difference between the mean per cent parasitaemia for the control (n = 5 mice) and treated groups expressed as a per cent relative to the control group. The survival of the animals was usually monitored up to 30 days: a compound was considered curative if the animal survived to day 30 after infection with no detectable parasites. In vivo efficacy studies in mice were conducted according to the rules and regulations for the protection of animal rights (“Tierschutzverordnung”) of the Swiss “Bundesamt für Veterinärwesen”. They were approved by the veterinary office of Canton Basel-Stadt, Switzerland.

[8] = K1 strain, IEF stage, data taken from ref 24, read-out: IC50 P. falc.

Molecule	IC50 ([4]; Trypanosoma brucei) [µM]	IC50 ([5]; Plasmodium falciparum) [µM]	IC50 [6] [µM]	Pf SI (selectivity index for P. falciparum = IC50 L6/IC50 Pf) [5]	also measured
NCCCCNCCCNC(=O)C(=O)c1c[nH]c2ccccc12 [Compound 2, didemnidine A]	–	–	–	–	Pf SI (selectivity index for P. falciparum = IC50 L6/IC50 Pf) ([1]; data taken from ref 24): 0.59; IC50 [1, 8]: 41 µM; IC50 [2]: 59 µM; IC50 [3]: 24 µM
NCCCCNCCCNC(=O)C(=O)c1c[nH]c2cc(Br)ccc12 [Compound 3, didemnidine B]	–	–	–	–	Pf SI (selectivity index for P. falciparum = IC50 L6/IC50 Pf) ([1]; data taken from ref 24): 1.7; IC50 [1, 8]: 15 µM; IC50 [2]: 44 µM; IC50 [3]: 25 µM
CC(C)(C)OC(=O)NCCCCNCCCNC(=O)C(=O)c1c[nH]c2cc(Br)ccc12 [Compound 4]	–	–	–	–	Pf SI (selectivity index for P. falciparum = IC50 L6/IC50 Pf) ([1]; data taken from ref 24): 3.0; IC50 [1, 8]: 8.4 µM; IC50 [2]: 9.9 µM; IC50 [3]: 25 µM
COc1ccc2c(C(=O)C(=O)NCCCN(CCCCCCCCN(CCCNC(=O)C(=O)c3c[nH]c4cc(OC)ccc34)C(=O)OC(C)(C)C)C(=O)OC(C)(C)C)c[nH]c2c1 [Compound 19, Di-tert-butyl Octane-1,8-diylbis((3-(2-(6-methoxy-1H-indol-3-yl)-2-oxoacetamido)propyl)carbamate)]	6.1	0.14	≥ 120	–	melting point: 92 °C
COc1cccc2c(C(=O)C(=O)NCCCN(CCCCCCCCN(CCCNC(=O)C(=O)c3c[nH]c4c(OC)cccc34)C(=O)OC(C)(C)C)C(=O)OC(C)(C)C)c[nH]c12 [Compound 20, Di-tert-butyl Octane-1,8-diylbis((3-(2-(7-methoxy-1H-indol-3-yl)-2-oxoacetamido)propyl)carbamate)]	61	0.092	≥ 120	≥1300	increase in mean survival time [7]: No increase; reduction in parasitaemia ([7]; parasitemia on day 4 post infection): 20.9%
COc1ccc2[nH]cc(C(=O)C(=O)NCCCNCCCCCCCCCCCCNCCCNC(=O)C(=O)c3c[nH]c4ccc(OC)cc34)c2c1.O=C(O)C(F)(F)F.O=C(O)C(F)(F)F [Compound 30, N^1,N^12-Bis(3-(2-(5-methoxy-1H-indol-3-yl)-2-oxoacetamido)propyl)dodecane-1,12-diaminium 2,2,2-trifluoroacetate]	0.27	0.2	17	85	–
COc1ccc2c(C(=O)C(=O)NCCCNCCCCCCCCCCCCNCCCNC(=O)C(=O)c3c[nH]c4cc(OC)ccc34)c[nH]c2c1.O=C(O)C(F)(F)F.O=C(O)C(F)(F)F [Compound 31, N^1,N^12-Bis(3-(2-(6-methoxy-1H-indol-3-yl)-2-oxoacetamido)propyl)dodecane-1,12-diaminium 2,2,2-trifluoroacetate]	0.18	0.24	6	25	–
COc1cccc2c(C(=O)C(=O)NCCCNCCCCCCCCCCCCNCCCNC(=O)C(=O)c3c[nH]c4c(OC)cccc34)c[nH]c12.O=C(O)C(F)(F)F.O=C(O)C(F)(F)F [Compound 32, N^1,N^12-Bis(3-(2-(7-methoxy-1H-indol-3-yl)-2-oxoacetamido)propyl)dodecane-1,12-diaminium 2,2,2-trifluoroacetate]	0.26	0.01	2.1	210	–
CC(C)(C)OC(=O)N(CCCCN(CCCNC(=O)Cc1c[nH]c2ccccc12)C(=O)OC(C)(C)C)CCCNC(=O)Cc1c[nH]c2ccccc12 [Compound 33, Di-tert-butyl Butane-1,4-diylbis((3-(2-(1H-indol-3-yl)acetamido)propyl)carbamate)]	7.1	0.16	19	120	–
O=C(Cc1c[nH]c2ccccc12)NCCCNCCCCNCCCNC(=O)Cc1c[nH]c2ccccc12.O=C(O)C(F)(F)F.O=C(O)C(F)(F)F [Compound 36, N^1,N^4-Bis(3-(2-(1H-indol-3-yl)acetamido)propyl)butane-1,4-diaminium 2,2,2-trifluoroacetate]	75	0.18	74	410	–
COc1cc(CC(=O)NCCCNCCCCNCCCNC(=O)Cc2ccc(O)c(OC)c2)ccc1O [orthidine F, reference compound]	–	–	–	–	IC50 ([1]; K1 dual drug-resistant strain, read-out: IC50 antimalarial potency (P. falciparum)): 0.89 µM
N^1,N^4-Bis(3-(2-(7-methoxy-1H-indol-3-yl)acetamido)propyl)butane-1,4-diaminium 2,2,2-trifluoroacetate [Compound 16]	–	–	62	48	IC50 [4]: 45 µM; IC50 [5]: 1.3 µM
